Test results: PubChem BioAssay AID1845198 (Molecular Pharmacology Branch, DTP, NCI, 2023)
“And” between values parts separate entries of the source, which are not always exact repeats. Equal values may be shown once.

Tested on: 425362-245-T-J1 tumor spheroids, viability % test/control
Assay: Anticancer human tumor 425362-245-T-J1 patient-derived melanoma cell line growth inhibition
Conditions: spheroids with HUVEC and MSC; for viability, T/C: stronger effect = lower value
Summary of the method: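 Single agents and combinations were tested on spheroids built from tumor cells plus HUVEC and hMSC, at half-log dilutions starting at or near clinical Cmax, else 10 microM; final DMSO 0.25% (v/v).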

[1] = curve of first compound, second compound 30 pM
[2] = curve of first compound, second compound 94.9 pM
[3] = curve of first compound, second compound 0.0003 µM
[4] = curve of first compound, second compound 0.000949 µM
[5] = curve of first compound, second compound 0.003 µM
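Also: spheroids exposed to agents for 7 days.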
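For viability, T/C in this document: 100% = DMSO vehicle control viability.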

Compound: Cc1sc2c(c1C)C(c1ccc(Cl)cc1)=NC(CC(=O)Nc1ccc(O)cc1)c1nnc(C)n1-2 (configuration not stated) + COc1cc2c(cc1O)CCNC21CSC2c3c(OC(C)=O)c(C)c4c(c3C(COC1=O)N1C(O)C3Cc5cc(C)c(OC)c(O)c5C(C21)N3C)OCO4
- IC50 [1]: 69.4 nM
- IC50 [2]: 67.7 nM
- IC50 [3]: 11.2 nM
- IC50 [4]: < 9.49 nM
- IC50 [5]: < 9.49 nM
- viability, T/C (second compound 30 pM, first compound 0.00949 µM): 98.3%
- viability, T/C (second compound 30 pM, first compound 0.03 µM): 69.6%
- viability, T/C (second compound 30 pM, first compound 0.0949 µM): 46%
- viability, T/C (second compound 30 pM, first compound 0.3 µM): 14.2%
- viability, T/C (second compound 30 pM, first compound 0.949 µM): 1.75%
- viability, T/C (second compound 30 pM, first compound 3 µM): 1.2%
- viability, T/C (second compound 94.9 pM, first compound 0.00949 µM): 94.7%
- viability, T/C (second compound 94.9 pM, first compound 0.03 µM): 76.6%
- viability, T/C (second compound 94.9 pM, first compound 0.0949 µM): 40.3%
- viability, T/C (second compound 94.9 pM, first compound 0.3 µM): 5.16%
- viability, T/C (second compound 94.9 pM, first compound 0.949 µM): 2.11%
- viability, T/C (second compound 94.9 pM, first compound 3 µM): 0.76%
- viability, T/C (second compound 0.0003 µM, first compound 0.00949 µM): 52.1%
- viability, T/C (second compound 0.0003 µM, first compound 0.03 µM): 37.9%
- viability, T/C (second compound 0.0003 µM, first compound 0.0949 µM): 17.1%
- viability, T/C (second compound 0.0003 µM, first compound 0.3 µM): 3.14%
- viability, T/C (second compound 0.0003 µM, first compound 0.949 µM): 0.36%
- viability, T/C (second compound 0.0003 µM, first compound 3 µM): 0.19%
- viability, T/C (second compound 0.000949 µM, first compound 0.00949 µM): 0.26%
- viability, T/C (second compound 0.000949 µM, first compound 0.03 µM): 0.2%
- viability, T/C (second compound 0.000949 µM, first compound 0.0949 µM): 0.1%
- viability, T/C (second compound 0.000949 µM, first compound 0.3 µM): 0.04%
- viability, T/C (second compound 0.000949 µM, first compound 0.949 µM): 0.04%
- viability, T/C (second compound 0.000949 µM, first compound 3 µM): 0.14%
- viability, T/C (second compound 0.003 µM, first compound 0.00949 µM): 0.25%
- viability, T/C (second compound 0.003 µM, first compound 0.03 µM): 0.27%
- viability, T/C (second compound 0.003 µM, first compound 0.0949 µM): 0.18%
- viability, T/C (second compound 0.003 µM, first compound 0.3 µM): 0.17%
- viability, T/C (second compound 0.003 µM, first compound 0.949 µM): 0.18%
- viability, T/C (second compound 0.003 µM, first compound 3 µM): 0.29%

Compound: CC(C)n1c(=O)n(C)c2cnc3cc(F)c(-c4ccc(OCCCN5CCCCC5)nc4)cc3c21 + COc1cc2c(cc1O)CCNC21CSC2c3c(OC(C)=O)c(C)c4c(c3C(COC1=O)N1C(O)C3Cc5cc(C)c(OC)c(O)c5C(C21)N3C)OCO4
- IC50 [1]: < 31.6 nM
- IC50 [2]: < 31.6 nM
- IC50 [3]: < 31.6 nM
- IC50 [4]: < 31.6 nM
- IC50 [5]: < 31.6 nM
- viability, T/C (second compound 30 pM, first compound 0.0316 µM): 14.8%
- viability, T/C (second compound 30 pM, first compound 0.1 µM): 30.2%
- viability, T/C (second compound 30 pM, first compound 0.316 µM): 13.3%
- viability, T/C (second compound 30 pM, first compound 1 µM): 14.8%
- viability, T/C (second compound 30 pM, first compound 3.16 µM): 11.2%
- viability, T/C (second compound 30 pM, first compound 10 µM): 5.34%
- viability, T/C (second compound 94.9 pM, first compound 0.0316 µM): 12%
- viability, T/C (second compound 94.9 pM, first compound 0.1 µM): 9.68%
- viability, T/C (second compound 94.9 pM, first compound 0.316 µM): 5.43%
- viability, T/C (second compound 94.9 pM, first compound 1 µM): 6.03%
- viability, T/C (second compound 94.9 pM, first compound 3.16 µM): 6.79%
- viability, T/C (second compound 94.9 pM, first compound 10 µM): 4.33%
- viability, T/C (second compound 0.0003 µM, first compound 0.0316 µM): 3.13%
- viability, T/C (second compound 0.0003 µM, first compound 0.1 µM): 2.75%
- viability, T/C (second compound 0.0003 µM, first compound 0.316 µM): 1.61%
- viability, T/C (second compound 0.0003 µM, first compound 1 µM): 1.81%
- viability, T/C (second compound 0.0003 µM, first compound 3.16 µM): 1.68%
- viability, T/C (second compound 0.0003 µM, first compound 10 µM): 1.23%
- viability, T/C (second compound 0.000949 µM, first compound 0.0316 µM): 0.2%
- viability, T/C (second compound 0.000949 µM, first compound 0.1 µM): 0.2%
- viability, T/C (second compound 0.000949 µM, first compound 0.316 µM): 0.19%
- viability, T/C (second compound 0.000949 µM, first compound 1 µM): 0.63%
- viability, T/C (second compound 0.000949 µM, first compound 3.16 µM): 0.35%
- viability, T/C (second compound 0.000949 µM, first compound 10 µM): 0.15%
- viability, T/C (second compound 0.003 µM, first compound 0.0316 µM): 0.18%
- viability, T/C (second compound 0.003 µM, first compound 0.1 µM): 0.19%
- viability, T/C (second compound 0.003 µM, first compound 0.316 µM): 0.17%
- viability, T/C (second compound 0.003 µM, first compound 1 µM): 0.12%
- viability, T/C (second compound 0.003 µM, first compound 3.16 µM): 0.12%
- viability, T/C (second compound 0.003 µM, first compound 10 µM): 0.23%

Compound: Cn1ncnc1[C@H]1c2n[nH]c(=O)c3cc(F)cc(c23)N[C@@H]1c1ccc(F)cc1
- viability, T/C (compound 0.00949 µM): 74.9% and 69% and 59.1%
- viability, T/C (compound 0.03 µM): 46.1% and 42.9% and 33.5%
- viability, T/C (compound 0.0949 µM): 35.3% and 25.2% and 18.1%
- viability, T/C (compound 0.3 µM): 16.1% and 14.1% and 15.6%
- viability, T/C (compound 0.949 µM): 10.1% and 9.44% and 9.39%
- viability, T/C (compound 3 µM): 3.22% and 2.7% and 1.7%
- IC50 (curve of compound): 29 nM and 22 nM and 14.1 nM
